Measurements from ChEMBL document CHEMBL1201862, “PubChem BioAssay data set” (2004).
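Method: 48-hour compound exposure of cells in 96-well plates, five concentrations, linear interpolation of endpoints. The concentration for 50% growth inhibition is given as GI50.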 The source made the active and inactive calls. Cut-off read from the data, not from the text of the source: active = GI50 up to about 1.1 µM and inactive = higher.

Tests used:
Experiment in all cases: NCI tumour cell line growth inhibition, 48 h
SK-OV-3 = tested on: SK-OV-3
NCI-H23 = tested on: NCI-H23
ACHN = tested on: ACHN
SK-MEL-28 = tested on: SK-MEL-28
MDA-MB-435 = tested on: MDA-MB-435
KM12 = tested on: KM12
SK-MEL-5 = tested on: SK-MEL-5
COLO 205 = tested on: COLO 205
SK-MEL-2 = tested on: SK-MEL-2
SW-620 = tested on: SW-620
MDA-N = tested on: MDA-N
CCRF-CEM = tested on: CCRF-CEM
OVCAR-3 = tested on: OVCAR-3
SF-295 = tested on: SF-295
SF-539 = tested on: SF-539
UACC-62 = tested on: UACC-62
OVCAR-5 = tested on: OVCAR-5
TK-10 = tested on: TK-10
HCC 2998 = tested on: HCC 2998
A498 = tested on: A498
Hs-578T = tested on: Hs-578T
M14 = tested on: M14
RPMI-8226 = tested on: RPMI-8226
OVCAR-4 = tested on: OVCAR-4
LOX IMVI = tested on: LOX IMVI
DU-145 = tested on: DU-145
T47D = tested on: T47D
A549 = tested on: A549
HOP-92 = tested on: HOP-92
NCI/ADR-RES = tested on: NCI/ADR-RES
IGROV-1 = tested on: IGROV-1
SNB-19 = tested on: SNB-19
NCI-H460 = tested on: NCI-H460
MOLT-4 = tested on: MOLT-4
HCT-15 = tested on: HCT-15
HL-60 = tested on: HL-60
SNB-75 = tested on: SNB-75
UACC-257 = tested on: UACC-257
MCF7 = tested on: MCF7
SF-268 = tested on: SF-268
K562 = tested on: K562
UO-31 = tested on: UO-31
MDA-MB-231 = tested on: MDA-MB-231
OVCAR-8 = tested on: OVCAR-8
CAKI-1 = tested on: CAKI-1
HOP-62 = tested on: HOP-62
U-251 = tested on: U-251
RXF 393 = tested on: RXF 393
PC-3 = tested on: PC-3
EKVX = tested on: EKVX
HT-29 = tested on: HT-29
786-0 = tested on: 786-0
NCI-H522 = tested on: NCI-H522
SR = tested on: SR
Malme-3M = tested on: Malme-3M
HCT-116 = tested on: HCT-116
NCI-H226 = tested on: NCI-H226
SN12C = tested on: SN12C

CCOC(=O)c1csc(NC(=O)CN2CCCCC2)n1
GI50 (SK-OV-3): > 100 µM (inactive) | GI50 (NCI-H23): > 100 µM (inactive) | GI50 (ACHN): > 100 µM (inactive) | GI50 (SK-MEL-28): > 100 µM (inactive) | GI50 (MDA-MB-435): > 100 µM (inactive) | GI50 (KM12): > 100 µM (inactive) | GI50 (SK-MEL-5): > 100 µM (inactive) | GI50 (COLO 205): > 100 µM (inactive) | GI50 (SK-MEL-2): > 100 µM (inactive) | GI50 (SW-620): > 100 µM (inactive) | GI50 (MDA-N): > 100 µM (inactive) | GI50 (CCRF-CEM): > 100 µM (inactive) | GI50 (OVCAR-3): > 100 µM (inactive) | GI50 (SF-295): > 100 µM (inactive) | GI50 (SF-539): > 100 µM (inactive) | GI50 (UACC-62): > 100 µM (inactive) | GI50 (OVCAR-5): > 100 µM (inactive) | GI50 (TK-10): > 100 µM (inactive) | GI50 (HCC 2998): > 100 µM (inactive) | GI50 (A498): > 100 µM (inactive) | GI50 (Hs-578T): > 100 µM (inactive) | GI50 (M14): > 100 µM (inactive) | GI50 (RPMI-8226): > 100 µM (inactive) | GI50 (OVCAR-4): > 100 µM (inactive) | GI50 (LOX IMVI): > 100 µM (inactive) | GI50 (DU-145): > 100 µM (inactive) | GI50 (T47D): > 100 µM (inactive) | GI50 (A549): > 100 µM (inactive) | GI50 (HOP-92): > 100 µM (inactive) | GI50 (NCI/ADR-RES): > 100 µM (inactive) | GI50 (IGROV-1): > 100 µM (inactive) | GI50 (SNB-19): > 100 µM (inactive) | GI50 (NCI-H460): > 100 µM (inactive) | GI50 (MOLT-4): > 100 µM (inactive) | GI50 (HCT-15): > 100 µM | GI50 (HL-60): > 100 µM (inactive) | GI50 (SNB-75): > 100 µM (inactive) | GI50 (UACC-257): > 100 µM (inactive) | GI50 (MCF7): > 100 µM (inactive) | GI50 (SF-268): > 100 µM (inactive) | GI50 (K562): > 100 µM (inactive) | GI50 (UO-31): > 100 µM (inactive) | GI50 (MDA-MB-231): > 100 µM (inactive) | GI50 (OVCAR-8): > 100 µM (inactive) | GI50 (CAKI-1): > 100 µM (inactive) | GI50 (HOP-62): > 100 µM (inactive) | GI50 (U-251): > 100 µM (inactive) | GI50 (RXF 393): > 100 µM (inactive) | GI50 (PC-3): > 100 µM (inactive) | GI50 (EKVX): > 100 µM (inactive) | GI50 (HT-29): > 100 µM (inactive)

COC(=O)C1(NC(=O)C(N)CC(=O)O)C(C)C1C (stereo not drawn)
GI50 (786-0): > 100 µM (inactive) | GI50 (SK-OV-3): > 100 µM (inactive) | GI50 (NCI-H23): > 100 µM (inactive) | GI50 (ACHN): > 100 µM (inactive) | GI50 (SK-MEL-28): > 100 µM (inactive) | GI50 (MDA-MB-435): > 100 µM (inactive) | GI50 (NCI-H522): > 100 µM (inactive) | GI50 (KM12): > 100 µM (inactive) | GI50 (SK-MEL-5): > 100 µM (inactive) | GI50 (COLO 205): > 100 µM (inactive) | GI50 (SK-MEL-2): > 100 µM (inactive) | GI50 (SW-620): > 100 µM (inactive) | GI50 (SR): > 100 µM (inactive) | GI50 (MDA-N): > 100 µM (inactive) | GI50 (CCRF-CEM): > 100 µM (inactive) | GI50 (OVCAR-3): > 100 µM (inactive) | GI50 (SF-295): > 100 µM (inactive) | GI50 (SF-539): > 100 µM (inactive) | GI50 (UACC-62): > 100 µM (inactive) | GI50 (OVCAR-5): > 100 µM (inactive) | GI50 (TK-10): > 100 µM (inactive) | GI50 (A498): > 100 µM (inactive) | GI50 (Malme-3M): > 100 µM (inactive) | GI50 (Hs-578T): > 100 µM (inactive) | GI50 (M14): > 100 µM (inactive) | GI50 (RPMI-8226): > 100 µM (inactive) | GI50 (OVCAR-4): > 100 µM (inactive) | GI50 (LOX IMVI): > 100 µM (inactive) | GI50 (DU-145): > 100 µM (inactive) | GI50 (T47D): > 100 µM (inactive) | GI50 (A549): > 100 µM (inactive) | GI50 (HOP-92): > 100 µM (inactive) | GI50 (NCI/ADR-RES): > 100 µM (inactive) | GI50 (IGROV-1): > 100 µM (inactive) | GI50 (HCT-116): > 100 µM (inactive) | GI50 (SNB-19): > 100 µM (inactive) | GI50 (NCI-H460): > 100 µM (inactive) | GI50 (MOLT-4): > 100 µM (inactive) | GI50 (HCT-15): > 100 µM | GI50 (HL-60): > 100 µM (inactive) | GI50 (SNB-75): > 100 µM (inactive) | GI50 (UACC-257): > 100 µM (inactive) | GI50 (MCF7): > 100 µM (inactive) | GI50 (SF-268): > 100 µM (inactive) | GI50 (K562): > 100 µM (inactive) | GI50 (UO-31): > 100 µM (inactive) | GI50 (MDA-MB-231): > 100 µM (inactive) | GI50 (OVCAR-8): > 100 µM (inactive) | GI50 (CAKI-1): > 100 µM (inactive) | GI50 (NCI-H226): > 100 µM (inactive) | GI50 (HOP-62): > 100 µM (inactive) | GI50 (U-251): > 100 µM (inactive) | GI50 (SN12C): > 100 µM (inactive) | GI50 (RXF 393): > 100 µM (inactive) | GI50 (PC-3): > 100 µM (inactive) | GI50 (EKVX): > 100 µM (inactive) | GI50 (HT-29): > 100 µM (inactive)
